In article PMC10761647, “β-carboline derivative Z86 attenuates colorectal cancer cell proliferation and migration by directly targeting PI3K” (Natural Products and Bioprospecting, 2024) one finds IC50 data, which are given here for one molecule.

Structures are written as SMILES.

This experiment has as its target T1, PI3Kα (Homo sapiens, UniProt P42336).
T1 construct: gene PIK3CA
In words: PI3-Kinase Activity ELISA (PIP3 production) with purified PI3Kα; supported by CETSA and DARTS in HCT116 and SW480 cells/lysates. Format: biochemical. For orientation: In an ELISA, binding on a coated surface is turned into a signal by an enzyme label.

T1 sequence (P42336 whole entry): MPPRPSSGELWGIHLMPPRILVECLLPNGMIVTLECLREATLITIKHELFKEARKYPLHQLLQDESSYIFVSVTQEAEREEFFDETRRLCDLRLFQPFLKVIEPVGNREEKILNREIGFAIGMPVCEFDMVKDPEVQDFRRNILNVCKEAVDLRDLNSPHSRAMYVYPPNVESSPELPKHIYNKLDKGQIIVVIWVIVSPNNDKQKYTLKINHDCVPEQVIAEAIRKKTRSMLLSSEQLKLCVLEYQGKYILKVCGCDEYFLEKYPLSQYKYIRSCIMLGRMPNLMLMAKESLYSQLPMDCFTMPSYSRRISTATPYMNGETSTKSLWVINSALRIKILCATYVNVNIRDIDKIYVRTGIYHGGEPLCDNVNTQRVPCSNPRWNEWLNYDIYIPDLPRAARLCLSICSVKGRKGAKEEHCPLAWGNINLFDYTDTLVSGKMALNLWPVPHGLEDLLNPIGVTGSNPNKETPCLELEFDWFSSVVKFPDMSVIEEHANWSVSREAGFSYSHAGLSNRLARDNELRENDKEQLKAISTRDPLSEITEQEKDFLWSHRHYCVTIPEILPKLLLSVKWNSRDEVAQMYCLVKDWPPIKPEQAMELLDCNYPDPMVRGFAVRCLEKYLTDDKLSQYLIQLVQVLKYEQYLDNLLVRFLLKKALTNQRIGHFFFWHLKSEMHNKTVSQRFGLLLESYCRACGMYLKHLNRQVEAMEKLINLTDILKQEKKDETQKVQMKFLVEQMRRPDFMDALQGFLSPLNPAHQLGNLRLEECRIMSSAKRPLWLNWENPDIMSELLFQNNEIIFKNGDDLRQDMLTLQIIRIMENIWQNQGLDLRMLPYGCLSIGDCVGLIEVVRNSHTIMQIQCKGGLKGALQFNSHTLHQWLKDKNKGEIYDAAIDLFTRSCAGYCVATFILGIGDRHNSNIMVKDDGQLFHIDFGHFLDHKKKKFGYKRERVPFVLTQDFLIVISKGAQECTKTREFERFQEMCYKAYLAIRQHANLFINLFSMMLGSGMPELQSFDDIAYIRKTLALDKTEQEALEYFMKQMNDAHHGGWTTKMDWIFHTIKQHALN
T1 sequence (P27986 2-724 partner): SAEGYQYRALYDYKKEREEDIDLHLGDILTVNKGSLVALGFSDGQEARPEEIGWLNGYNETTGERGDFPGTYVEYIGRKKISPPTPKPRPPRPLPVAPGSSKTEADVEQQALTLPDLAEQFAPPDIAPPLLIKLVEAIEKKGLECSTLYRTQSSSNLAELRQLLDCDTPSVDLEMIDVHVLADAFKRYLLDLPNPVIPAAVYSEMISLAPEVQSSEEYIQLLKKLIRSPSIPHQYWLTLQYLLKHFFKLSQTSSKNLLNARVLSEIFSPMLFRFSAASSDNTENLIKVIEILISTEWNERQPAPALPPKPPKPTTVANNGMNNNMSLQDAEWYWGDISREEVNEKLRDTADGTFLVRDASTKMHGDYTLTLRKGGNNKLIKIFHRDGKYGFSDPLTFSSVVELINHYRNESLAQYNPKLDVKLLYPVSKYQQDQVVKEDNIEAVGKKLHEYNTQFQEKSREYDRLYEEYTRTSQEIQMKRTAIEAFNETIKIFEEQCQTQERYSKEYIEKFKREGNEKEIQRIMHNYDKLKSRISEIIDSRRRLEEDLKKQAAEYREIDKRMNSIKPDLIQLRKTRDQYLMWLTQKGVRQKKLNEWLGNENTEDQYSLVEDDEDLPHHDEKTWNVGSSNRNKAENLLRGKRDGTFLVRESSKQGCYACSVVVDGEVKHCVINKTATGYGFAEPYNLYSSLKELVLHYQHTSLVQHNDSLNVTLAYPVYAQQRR

For orientation: IC50 means the midpoint of a concentration-inhibition curve. Read a low IC50 as greater potency. With `CCn1c2ccccc2c2cc(C(=O)OC(C)C)nc(-c3cccc4ccccc34)c21` [Z86, isopropyl 9-ethyl-1-(naphthalen-1-yl)-9 H-pyrido[3,4-b] indole-3-carboxylate], 4.28 µM corresponded to half-maximal inhibition (IC50). This counts as single-digit micromolar.
